The source of these data is patent publication US20070053994A1, “Anti-inflammatory treatment” (priority 2003, published 2007).

The subject of the test is severe psoriasis (person). As to the kind of experiment: Case report: treatment of severe psoriasis of hands, arms and feet. Type of test: in vivo, human. The conditions noted are these: effects did not last following long term treatment.

For the compound `C[C@]12CCC(=O)C=C1CC[C@@H]1[C@@H]2C(=O)C[C@@]2(C)[C@H]1CC[C@]2(O)C(=O)CO` [cortisone], the “effect of earlier treatment on psoriasis (patient history)” value was “some effects”.
